According to PubChem BioAssay (NCI):
“And” between values parts separate entries of the source, which are not always exact repeats. Identical values can stand only once.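 Interpolation was linear, between the two tested concentrations surrounding the appropriate level; five concentrations were tested over 48 hours in 96-well plates. Abbreviation: GI50, concentration required for 50% inhibition of growth. The concentration for full growth arrest is given as TGI.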

Legend:
Test in all cases: DTP human tumour cell line panel, 48 h
[1] = tested on: HOP-62 NSCLC
[2] = tested on: MCF7 breast
[3] = tested on: A498 renal
[4] = tested on: HCT-116 colon
[5] = tested on: OVCAR-4 ovarian
[6] = tested on: HS 578T breast
[7] = tested on: SF-295 CNS
[8] = tested on: NCI-H460 lung
[9] = tested on: A549 NSCLC
[10] = tested on: KM12 colon

Compound	GI50 [1]	TGI [1]	GI50 [2]	TGI [2]	GI50 [3]	TGI [3]	GI50 [4]	TGI [4]	GI50 [5]	TGI [5]	GI50 [6]	TGI [6]	GI50 [7]	TGI [7]	GI50 [8]	TGI [8]	GI50 [9]	TGI [9]	GI50 [10]	TGI [10]
N=C(N)SCc1c2ccccc2c(CSC(=N)N)c2ccccc12	10.5 µM	26.5 µM	1.54 µM	15.5 µM	7.42 µM	22.9 µM	2.59 µM	16.6 µM	11.7 µM	35.5 µM	5.75 µM	34.3 µM	5.25 µM	24.2 µM	1.08 µM	15.3 µM	3.61 µM	30.9 µM	10.3 µM	23.4 µM
N=N/C(=C\c1c(O)[nH]c2ccccc12)c1ccccc1		99.8 µM		> 100 µM		91.6 µM		> 59.3 µM		> 100 µM		44.4 µM		66 µM		> 100 µM		> 100 µM		> 89.2 µM
c1ccc2cc(NCNc3ccc4ccccc4c3)ccc2c1		51.3 µM		25.6 µM		45.6 µM		43.4 µM		26.6 µM		> 100 µM		33.9 µM		28.9 µM		47.5 µM		38.7 µM
O=C(/C(=C/c1ccc([N+](=O)[O-])cc1)SCc1ccc(Cl)cc1)c1ccc(F)cc1	13.1 µM	35.4 µM	1.56 µM	4.78 µM	13.9 µM	38.4 µM	1.39 µM	2.92 µM	3.11 µM	13.9 µM	2.42 µM	7.68 µM	4.02 µM	14.4 µM	5.79 µM	24.7 µM	49.5 µM	> 100 µM	2.71 µM	8.08 µM
O=[N+]([O-])c1ccc(C2CC(c3ccccc3)=Nc3ccccc3S2)cc1 (stereo not drawn)	97.1 µM	> 100 µM	1.81 µM	6.72 µM	59.8 µM	> 100 µM	1.98 µM	4.11 µM	21.4 µM	> 100 µM	19.1 µM	> 100 µM	> 100 µM	> 100 µM	> 100 µM	> 100 µM	> 100 µM	> 100 µM	6.13 µM	97.5 µM
O=C1NC2C(=CC(O)C(O)C2O)c2cc3c(cc21)OCO3 (stereo not drawn)	0.277 µM and 0.191 µM	1.82 µM and 1.84 µM	0.0495 µM	0.854 µM and 4.46 µM	0.904 µM and 0.568 µM	3.64 µM and 2.69 µM	0.282 µM and 0.101 µM	1.18 µM and 2.77 µM	0.159 µM and 0.422 µM			0.55 µM	0.889 µM and 0.317 µM	3.26 µM and 2.39 µM	0.251 µM and 0.147 µM	2.01 µM and 1.3 µM	0.462 µM and 0.273 µM	6.87 µM and 4.1 µM	0.336 µM and 0.129 µM	1.75 µM and 3.53 µM
C[C@@H](NC(=O)/C(C#N)=C/c1ccc([N+](=O)[O-])cc1)c1ccccc1	2.88 µM	8.91 µM	2.41 µM	7.65 µM	4.25 µM	8.49 µM	1.89 µM	3.79 µM	2.15 µM	5.95 µM	5.92 µM	> 32.9 µM	2.25 µM	5.49 µM	2.58 µM	6.95 µM	2.94 µM	8.37 µM	2.07 µM	4.18 µM
COc1cc(C(=O)N2CCN(c3ccccc3)CC2)c2ccccc2n1	0.119 µM	> 100 µM	0.0386 µM	> 100 µM	0.0226 µM	0.357 µM	0.055 µM	28.1 µM	4.27 µM	> 100 µM	0.0387 µM	0.387 µM	0.0276 µM	0.115 µM	0.0481 µM	4.1 µM	0.101 µM	> 100 µM	0.0412 µM	5.19 µM
COc1ccc2c(c1)CC[C@@H]1[C@@H]2CC[C@]2(C)c3c(cc(C(=O)O)c4sccc34)C[C@@H]12	19.6 µM	38.5 µM	17.2 µM	59 µM	15.6 µM	34.9 µM	11.2 µM	24.8 µM	26.3 µM	79.8 µM	28.7 µM	96.1 µM	14.3 µM	31.9 µM	11.6 µM	37.7 µM	11.2 µM	35.9 µM	10.6 µM	23.5 µM
COc1ccc(Nc2cc(C)nc(NCc3ccccc3)n2)cc1	9.92 µM	24.9 µM	3.51 µM	18.9 µM	1.83 µM	13.6 µM	2.49 µM	13 µM	2.42 µM	19.3 µM	11 µM	39.2 µM	2.57 µM	15.3 µM	4.09 µM	17.6 µM	6.53 µM	24.7 µM	6.2 µM	21.9 µM
CCOC(=O)Nc1nc2ccc(Br)cc2s1	> 50 µM	> 50 µM	> 50 µM	> 50 µM	> 50 µM	> 50 µM	> 50 µM	> 50 µM	> 50 µM	> 50 µM	> 50 µM	> 50 µM	> 50 µM	> 50 µM	> 50 µM	> 50 µM	> 50 µM	> 50 µM	> 50 µM	> 50 µM
N/C(=N/N=C/c1ccccc1)N/N=C\c1ccccc1	9.71 µM	> 100 µM	3.4 µM	> 100 µM	6.03 µM	> 100 µM	4.5 µM	> 100 µM	19.6 µM	> 100 µM	3.73 µM	42.5 µM	3.96 µM	32.4 µM	3.89 µM	> 100 µM	3.79 µM	> 100 µM	2.76 µM	> 100 µM
